Laboratory results as given in paper PMC10288505, “Photoswitchable Calixarene Activators for Controlled Peptide Transport across Lipid Membranes” (Journal of the American Chemical Society, 2023).
Where “and” joins values, the source holds several entries; their conditions need not be identical. Equal entries are not always repeated. Where two headings read alike, the source gives them in different places.

Experiments:
[1] = Carboxyfluorescein (CF) dye efflux assay, counterion-activated peptide transport; type: biochemical; conditions: for TE (transport efficiency), R6 transport / TE (transport efficiency), R8 transport: TE = Ymax × pEC50/f, pEC50 = −log EC50 (in mM), f = 20.6; for TE (transport efficiency), R6 transport: R6 4 μM; for TE (transport efficiency), R6 transport / TE (transport efficiency), R8 transport / Ymax (maximal CF release relative to Triton X-100 lysis), R6 transport / EC50 / Ymax (maximal CF release relative to Triton X-100 lysis), R8 transport: EYPC-LUV⊃CF 15 μM; for TE (transport efficiency), R8 transport: R8 4 μM; for Ymax (maximal CF release relative to Triton X-100 lysis), R6 transport / EC50 / Ymax (maximal CF release relative to Triton X-100 lysis), R8 transport: 5 mM phosphate buffer pH 7.3, Hill fit, triplicate; for EC50 / Activation of CF release in the presence of peptide R4: 50 mM CF inside; for EC50: fluorescence; for Activation of CF release in the presence of peptide R4: R4 5 µM, EYPC-LUV⊃CF 15 µM
Protocol: Dynamic light scattering (DLS) control experiments also confirmed liposome integrity under the experimental conditions employed in the different membrane transport assays, which ruled out potential membrane disruption interferences (Figure S34). Established dye efflux assays were performed using the carboxyfluorescein (CF) dye encapsulated at self-quenching concentrations in egg phosphatidylcholine large unilamellar vesicles (EYPC-LUV⊃CF).[26],[27],[29],[45] In these experiments, the fractional release of trapped CF (or fractional transport activity, Y), triggered by the addition of counterion activators and peptides, is monitored by time-resolved fluorescence spectroscopy and calibrated by the addition of Triton X-100 (Figure S35).
The studies were performed with both 1 and 2 in the E and Z configurations in the presence of fixed concentrations of liposomes and cationic peptides. […] Likewise, the addition of peptides alone or nonbinding anionic peptides in the presence of calixarene activators also results in unmodified fluorescence signal, confirming that the formation of the calixarene–peptide complex is critical to activate the transport process. […] This approach retrieves the Ymax (i.e., maximal CF release relative to liposome lysis after the addition of Triton X-100) and EC50 (i.e., the effective counterion activator concentration required to reach Ymax/2) as the relevant parameters to measure the efficiency of the counterion activators.
10 mg of L-α-phosphatidylcholine (95%) (Egg, Chicken) were dissolved in 1 ml of chloroform. The solution was evaporated under a nitrogen stream, under rotation, to form a thin lipid film in the bottom of the flask. This film was left to dry under vacuum for a minimum of 1h. After drying the maximum of the solvent from the solution, 1 ml of the solution to incorporate (CF 50 mM in 5 mM phosphate buffer for EYPC-LUV⊃CF and only phosphate buffer 5 mM pH 7.4, for the LUVs with no encapsulation) was added to the thin film and the lipids were left to resuspend under agitation, in a 40 °C bath, for 30 min. The resuspended lipid mixture was then submitted to 10 freeze-thaw cycles and extruded 23 times through a 100 nm membrane, to obtain uniform, monodisperse liposomes with high encapsulation of the added solution. The liposomes were then separated from the molecules that were not encapsulated by size-exclusion chromatography, with Sephadex G25 (V = 37 ml), obtaining two fractions, one with high turbidity and a clear one, corresponding to the encapsulated and free sensor, respectively. The samples were then analyzed by Dynamic Light Scattering (DLS) to determine the average size of the liposomes in solution and their size distribution.
All assays were done up to 48h after the preparation of the vesicles to ensure their integrity and majority of CF still encapsulated.
EC50 and Ymax calculation. For the measurement of 1 and 2’s effectiveness as a counterion activators of polyarginine transport, dye efflux assays were executed at several counterion activator concentrations, while maintaining the concentration of peptide and LUV fixed as indicated in the respective figures.
For the dye efflux assays, CF emission was followed throughout the assay, with consecutive additions of the elements of the solution – the initial solution presented only the vesicles at a fixed concentration. A counterion activator aliquot is then added according to the concentration to be tested and the emission is measured to confirm that CF remains encapsulated; some counterion activators can act as detergents at sufficient concentrations. Finally, the peptide in question is added and fluorescence spectra are measured […]
until the emission stabilizes and a maximum of release is reached. If the counterion activator has the capacity to activate the transport, CF should be co-transported to the exterior of the liposome with the influx of the counterion-peptide complex. Finally, Triton X-100 is added to the solution to dissolve the […]

[2] = Fluorescence titration of lucigenin dye with calixarene host (1:1 binding model); conditions: association constant, 1:1 host:guest model, 5 mM phosphate buffer pH 7.3, mean ± SD of triplicate
Text: The binding affinity of the anionic calixarene activators toward cationic peptides was investigated using a small library of highly hydrophilic oligoarginines, from 3 to 8 residues. These peptides are not able to spontaneously transverse zwitterionic artificial membranes in vesicle assays, which allows the accurate evaluation of the calixarenes 1 and 2 as counterion activators without interferences from the transport of the peptide alone.[43]−[45] First, the formation of host–guest complexes between 1/2 and the selected peptides was verified by indicator displacement assays using lucigenin (LCG) as the fluorescent indicator.[46] As previously reported for other sulfonatocalixarene derivatives,[46] the formation of host–guest binding pairs between calixarenes 1/2 in the E- and Z-forms and LCG results in significant static fluorescence quenching (see Figure 2A and Figures S26 and S27). Quantitative analysis of the fluorescence titration data using a 1:1 host:guest binding model allows the determination of the respective binding constants (K) reported in Table 1. As can be observed, both 1/2 display high affinity for the LCG dye, on the 10^7 M^–1 range, which seems to be independent of the nature and conformation of the azobenzene arm. […] The host:LCG binding pairs were then employed in the above-mentioned indicator displacement assays to investigate the binding affinity of oligoarginines toward 1 and 2 (see Figure 2B and Figures S29–S33).
Figure 2 (A) Fluorescence titration of the lucigenin dye (LCG, 1.5 μM) with increasing concentrations of E-2 in water (5 mM phosphate buffer, pH 7.3). (B) Indicator displacement titration of hexaarginine (R6) using E-2:LCG as the reporter pair (5 mM phosphate buffer, pH 7.3). LCG and E-2 concentrations were fixed at 4 and 4.3 μM, respectively. […]
The binding affinities of the counterion activators and peptide complexes were analyzed by indicator displacement assays. […] Firstly, the affinity for LCG was calculated for each of the activators, by titrations followed by fluorescence spectroscopy leading to almost full quenching of the emission. […]
Figure S26 - Fluorescence titration of the lucigenin dye with increasing concentrations of A) E-1 and B) Z–1 in water (5 mM phosphate buffer pH 7.3). […]
Figure S27 - Fluorescence titrations of the lucigenin dye (LCG, 0.2 µM, except for the first E-2 titration were [LCG] = 1.5 µM ) with increasing concentrations of (A) E-2 and (B) Z-2 in water (5 mM phosphate buffer pH 7.3). […]
Figure S28 - Fluorescence titrations of the lucigenin dye (LCG, 0.2 µM) with increasing concentrations of SC4 in water (5 mM phosphate buffer pH 7.3). […]

[3] = peptide R6 4 μM, read-out: EC50 (effective counterion activator concentration to reach Ymax/2), R6 transport
[4] = peptide R8 4 μM, read-out: EC50 (effective counterion activator concentration to reach Ymax/2), R8 transport

| Structure (SMILES) | TE (transport efficiency), R6 transport [1] | TE (transport efficiency), R8 transport [1] | Ymax (maximal CF release relative to Triton X-100 lysis), R6 transport ([1]; peptide R6 4 μM) | EC50 [1, 3] | Ymax (maximal CF release relative to Triton X-100 lysis), R8 transport ([1]; peptide R8 4 μM) | EC50 [1, 4] | Apparent affinity constant K for LCG [2] | Activation of CF release in the presence of peptide R4 [1] |
| --- | --- | --- | --- | --- | --- | --- | --- | --- |
| O=S(=O)([O-])c1cc2c(O)c(c1)Cc1cc(S(=O)(=O)[O-])cc(c1O)Cc1cc(S(=O)(=O)[O-])cc(c1OCCCCCCOc1ccc(/N=N/c3ccccc3)cc1)Cc1cc(S(=O)(=O)[O-])cc(c1O)C2.[Li+].[Li+].[Li+].[Li+] [E-1] | 19.4 ± 0.2 | 20.3 ± 0.4 | 96% and 96 ± 1% | 0.072 ± 0.005 µM | 91 ± 2% | 0.024 ± 0.002 µM | (2.5 ± 0.7) × 10^7 M^–1 | – |
| O=S(=O)([O-])c1cc2c(O)c(c1)Cc1cc(S(=O)(=O)[O-])cc(c1O)Cc1cc(S(=O)(=O)[O-])cc(c1OCCCCCCOc1ccc(/N=N\c3ccccc3)cc1)Cc1cc(S(=O)(=O)[O-])cc(c1O)C2.[Li+].[Li+].[Li+].[Li+] [Z-1] | 10.8 ± 0.8 | 13.3 ± 0.4 | 63% and 63 ± 5% | 0.291 ± 0.032 µM | 69 ± 2% | 0.099 ± 0.003 µM | (2.3 ± 0.4) × 10^7 M^–1 | no activation was observed |
| CCCCc1ccc(/N=N/c2ccc(OCCCOc3c4cc(S(=O)(=O)[O-])cc3Cc3cc(S(=O)(=O)[O-])cc(c3O)Cc3cc(S(=O)(=O)[O-])cc(c3O)Cc3cc(S(=O)(=O)[O-])cc(c3O)C4)cc2)cc1.[Li+].[Li+].[Li+].[Li+] [E-2] | 20.2 ± 0.2 | 22.2 ± 0.3 | 96% and 96 ± 1% | 0.045 ± 0.002 µM | 93 ± 2% | 0.011 ± 0.001 µM | (2.6 ± 0.7) × 10^7 M^–1 | – |
| CCCCc1ccc(/N=N\c2ccc(OCCCOc3c4cc(S(=O)(=O)[O-])cc3Cc3cc(S(=O)(=O)[O-])cc(c3O)Cc3cc(S(=O)(=O)[O-])cc(c3O)Cc3cc(S(=O)(=O)[O-])cc(c3O)C4)cc2)cc1.[Li+].[Li+].[Li+].[Li+] [Z-2] | 16.6 ± 0.3 | 20.8 ± 0.4 | 94% and 94 ± 2% | 0.227 ± 0.017 µM | 94 ± 2% | 0.03 ± 0.004 µM | (3.4 ± 0.8) × 10^7 M^–1 | no activation was observed |
